# From patent US11420966B2 (ACLARIS THERAPEUTICS, INC., priority 2019, dated 2022)
# Experiments:
# [1] = system: IFNγ stimulated STAT1 phosphorylation on Tyr701 (JAK1/2); test: JAK1/2 cellular target modulation: IFNγ stimulated phospho-STAT1 in PBMC; assay type: cell-based; details: human PBMC, IFNγ 10 ng/ml; read-out: Infγ-STAT1 IC50
# Excerpt: (§1) JAK Cellular Target Modulation Assays
# (§2) Target modulation was based upon the ability of a compound to inhibit JAK isoform specific phosphorylation of selected substrates. IL-2 stimulated STAT5 phosphorylation on Tyr694 was used to assess JAK1/3 compound selectivity. GM-CSF stimulated STAT5 phosphorylation on Tyr694 was used to assess JAK2 compound selectivity. IFNγ stimulated STAT1 phosphorylation on Tyr701 was used to assess JAK1/2 compound selectivity. IL-12 stimulated STAT4 phosphorylation on Tyr693 was used to assess JAK2/TYK2 compound selectivity. For all four assays, human PBMC from frozen stocks were thawed, pelleted, resuspended in complete media (90% RPMI, 10% heat inactivated FBS, 10 mM HEPES, 47 μM 2-ME, pen/strep) and placed in wells of a 96 well V-bottom plate at 200,000 per well in 120 μl complete media. Compounds were added as 15 μl per well of 10× working stock solutions in complete media with 1% DMSO (or medium with 1% DMSO for controls) and placed on a plate shaker in a 37° C. incubator with 5% CO2 for 1 hour with gentle shaking (setting of 3). Stimulation used the addition of soluble cytokines. For the JAK1/3 phospho-STAT5 assay, 15 μl of 10× working stock recombinant human IL-2 was added to a final concentration of 25 ng/ml. For the JAK2 phospho-STAT5 assay, 15 μl of 10× working stock recombinant human GM-CSF was added to a final concentration of 5 ng/ml. For the JAK1/2 phospho-STAT1 assay, 15 μl of 10× working stock of recombinant human IFNγ was added to a final concentration of 10 ng/ml. For the JAK2/TYK2 phospho-STAT4 assay, 15 μl of 10× working stock of recombinant human IL-12 was added to a final concentration of 1.7 ng/ml. Plates were then placed back on the plate shaker in the incubator for an additional 5, 5, 10, and 25 minutes respectively upon which the plates were removed from the incubator, sealed with a plate sealer and the cells pelleted at 400×g for 5 minutes. After pelleting, the media was removed by aspiration and the cells were lysed in assay specific cell lysis buffer. The levels of phospho-STATS were determined using a Phospho (Tyr694) STAT5a,b Whole Cell Lysate kit from Meso Scale Discovery. Levels of phospho-STAT1 were determined using a CST-PathScan Phospho-STAT1 (Tyr701) Sandwich ELISA kit. Levels of phospho-STAT4 were determined using a Phospho-STAT4 (Tyr693) Whole Cell Lysate kit from Meso Scale Discovery.
# [2] = system: IL-12 stimulated STAT4 phosphorylation on Tyr693 (JAK2/TYK2); test: JAK2/TYK2 cellular target modulation: IL-12 stimulated phospho-STAT4 in PBMC; assay type: cell-based; details: human PBMC, IL-12 1.7 ng/ml; read-out: IL12-STAT4 IC50
# Excerpt: as §1, §2
# Tyk-2 = Tyk-2 (Homo sapiens (Human), UniProt P29597); test: Tyk-2 enzyme activity assay (Thermo Fisher SelectScreen, Z-lyte); assay type: biochemical; details: read-out: Tyk-2 Inhibition IC50
# Sequence of Tyk-2 (P29597 whole entry): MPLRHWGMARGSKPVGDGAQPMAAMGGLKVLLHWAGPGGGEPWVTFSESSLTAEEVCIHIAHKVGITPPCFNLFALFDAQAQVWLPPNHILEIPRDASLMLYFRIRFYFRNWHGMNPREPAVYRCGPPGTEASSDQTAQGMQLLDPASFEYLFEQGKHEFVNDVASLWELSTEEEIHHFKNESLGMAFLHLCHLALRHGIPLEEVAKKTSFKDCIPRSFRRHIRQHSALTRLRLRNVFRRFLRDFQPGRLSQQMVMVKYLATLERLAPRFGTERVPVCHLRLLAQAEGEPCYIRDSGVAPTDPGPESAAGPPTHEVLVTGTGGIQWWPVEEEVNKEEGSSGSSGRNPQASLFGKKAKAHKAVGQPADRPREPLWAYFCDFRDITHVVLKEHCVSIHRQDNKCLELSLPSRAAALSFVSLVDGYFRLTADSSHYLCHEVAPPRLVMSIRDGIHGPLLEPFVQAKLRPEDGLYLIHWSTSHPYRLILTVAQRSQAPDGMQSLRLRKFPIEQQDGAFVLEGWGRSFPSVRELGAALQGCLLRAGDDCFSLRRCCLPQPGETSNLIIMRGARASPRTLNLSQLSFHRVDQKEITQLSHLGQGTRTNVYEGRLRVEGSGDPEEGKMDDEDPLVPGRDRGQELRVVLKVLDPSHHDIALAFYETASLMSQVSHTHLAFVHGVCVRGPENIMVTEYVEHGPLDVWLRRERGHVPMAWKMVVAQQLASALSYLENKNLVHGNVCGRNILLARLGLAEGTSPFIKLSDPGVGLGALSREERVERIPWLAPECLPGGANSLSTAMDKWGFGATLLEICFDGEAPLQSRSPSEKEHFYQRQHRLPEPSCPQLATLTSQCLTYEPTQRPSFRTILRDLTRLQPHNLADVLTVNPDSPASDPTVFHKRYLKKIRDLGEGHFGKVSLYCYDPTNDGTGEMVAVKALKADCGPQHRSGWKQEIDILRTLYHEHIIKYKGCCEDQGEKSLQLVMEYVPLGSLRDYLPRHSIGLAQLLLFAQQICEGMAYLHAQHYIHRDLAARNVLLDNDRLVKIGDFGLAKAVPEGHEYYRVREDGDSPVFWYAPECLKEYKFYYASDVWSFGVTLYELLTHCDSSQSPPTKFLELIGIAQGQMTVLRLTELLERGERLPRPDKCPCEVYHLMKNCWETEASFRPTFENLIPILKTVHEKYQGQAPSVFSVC
# Experimental: (§3) JAK1, JAK2, JAK3, and Tyk-2 Enzyme Activity Assays
# (§4) The inhibitory potency of candidate compounds of JAK1, JAK2, and Tyk-2 was done at Thermo Fisher Scientific in their Selectscreen using a Z-lyte assay. Following are the assay details for each enzyme.
# TYK2: The 2×TYK2/Tyr 03 mixture is prepared in 50 mM HEPES pH 6.5, 0.01% BRIJ-35, 10 mM MgCl2, 1 mM EGTA, 0.02% NaN3. The final 10 μL Kinase Reaction consists of 3.75-15 ng TYK2 and 2 M Tyr 03 in 50 mM HEPES pH 7.0, 0.01% BRIJ-35, 10 mM MgCl2, 1 mM EGTA, 0.01% NaN3. After the one hour KinaseReaction incubation, 5 μL of a 1:4096 dilution of Development Reagent A is added.
# (§5) Data reduction for JAK1, JAK2 and TYK2 is done the same, independent of the enzyme run. In summary, background signal is defined in the absence of enzyme and uninhibited signal is defined in the presence of vehicle (2% DMSO) alone. Compounds were evaluated in an 11 point dose-response ranging from […] to 0.34 nM. IC50 values of compounds are determined using a 4 parameter logistical fit of emission ratio as a function of the concentration of compound.
# JAK3 (a.a. 781-1124) = JAK3 (a.a. 781-1124) (Homo sapiens (Human), UniProt P52333); test: JAK3 enzyme activity assay (SRCtide phosphorylation, Caliper); assay type: biochemical; details: 1 uM ATP; read-out: JAK3 Inhibition IC50
# Sequence of JAK3 (a.a. 781-1124) (P52333 781-1124): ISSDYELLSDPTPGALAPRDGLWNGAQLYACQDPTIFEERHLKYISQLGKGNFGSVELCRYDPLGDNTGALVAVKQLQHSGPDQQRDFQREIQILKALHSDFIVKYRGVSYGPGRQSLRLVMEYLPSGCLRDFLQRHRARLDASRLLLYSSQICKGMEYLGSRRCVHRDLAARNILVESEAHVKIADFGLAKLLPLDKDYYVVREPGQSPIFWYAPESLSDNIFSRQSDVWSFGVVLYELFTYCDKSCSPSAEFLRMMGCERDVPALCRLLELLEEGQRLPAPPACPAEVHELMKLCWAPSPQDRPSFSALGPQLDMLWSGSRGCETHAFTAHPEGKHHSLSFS
# Experimental: as §3
# Kinase reactions were run in a 384-well Greiner plate with 2% final DMSO concentration under the buffer conditions of 20 mM HEPES, pH 7.5, 10 mM MgCl2, 0.01% BSA, and 0.0005% Tween-20. The kinase reaction components were 2.5 nM JAK3, 1 μM SRCtide peptide and 1 uM ATP. Examples were tested in dose-response starting at 2 M (11 concentrations, 3-fold serial dilution, duplicate reactions). The reactions were incubated at room temperature for 40 minutes, then stopped by adding a 1:1 volume of 30 mM EDTA in 20 mM HEPES, pH 7.5 (15 mM EDTA final). After the reaction was stopped, the phosphorylated and unphosphorylated peptides were separated and quantified using a Caliper LC3000/EZ-Reader system and HTS Well Analyzer Software (Caliper, A PerkinElmer Company, Hopkinton, Mass.). GraFit (Erithacus Software Ltd., Horley, U.K.) was used to calculate inhibitor potency by fitting dose-response data to the 4-parameter logistical IC50 equation.
# JAK2 = JAK2 (Homo sapiens (Human), UniProt O60674); test: JAK2 enzyme activity assay (Thermo Fisher SelectScreen, Z-lyte); assay type: biochemical; details: read-out: JAK2 Inhibition IC50
# Sequence of JAK2 (O60674 whole entry): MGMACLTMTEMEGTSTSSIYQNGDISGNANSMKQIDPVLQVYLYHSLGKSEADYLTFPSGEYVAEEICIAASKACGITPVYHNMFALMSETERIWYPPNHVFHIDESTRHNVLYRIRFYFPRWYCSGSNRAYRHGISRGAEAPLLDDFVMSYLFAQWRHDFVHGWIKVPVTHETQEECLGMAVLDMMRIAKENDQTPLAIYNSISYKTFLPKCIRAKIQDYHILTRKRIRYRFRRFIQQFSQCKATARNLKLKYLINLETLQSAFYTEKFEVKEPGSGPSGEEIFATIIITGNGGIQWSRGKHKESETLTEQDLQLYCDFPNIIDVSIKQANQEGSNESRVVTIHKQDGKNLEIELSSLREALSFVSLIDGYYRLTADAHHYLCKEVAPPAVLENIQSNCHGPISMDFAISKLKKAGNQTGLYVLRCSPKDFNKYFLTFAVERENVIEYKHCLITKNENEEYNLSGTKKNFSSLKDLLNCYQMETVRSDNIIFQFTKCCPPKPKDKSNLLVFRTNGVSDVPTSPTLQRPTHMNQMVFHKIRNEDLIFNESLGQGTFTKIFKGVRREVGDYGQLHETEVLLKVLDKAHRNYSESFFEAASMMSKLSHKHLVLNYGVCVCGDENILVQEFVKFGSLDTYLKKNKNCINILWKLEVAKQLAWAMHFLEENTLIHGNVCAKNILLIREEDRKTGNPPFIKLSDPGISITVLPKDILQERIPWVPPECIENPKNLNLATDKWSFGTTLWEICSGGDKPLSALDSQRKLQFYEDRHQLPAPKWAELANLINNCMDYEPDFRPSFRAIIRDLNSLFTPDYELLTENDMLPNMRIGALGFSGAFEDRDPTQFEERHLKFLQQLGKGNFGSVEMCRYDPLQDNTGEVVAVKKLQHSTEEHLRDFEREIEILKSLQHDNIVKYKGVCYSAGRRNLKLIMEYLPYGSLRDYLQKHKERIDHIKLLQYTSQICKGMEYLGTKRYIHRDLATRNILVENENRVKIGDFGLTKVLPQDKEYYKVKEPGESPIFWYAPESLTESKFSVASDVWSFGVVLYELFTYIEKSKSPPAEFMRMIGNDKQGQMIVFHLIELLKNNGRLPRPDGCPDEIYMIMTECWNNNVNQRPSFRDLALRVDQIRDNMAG
# Experimental: as §3, §4
# JAK2: The 2×JAK2/Tyr 06 mixture is prepared in 50 mM HEPES pH 7.5, 0.01% BRIJ-35, 10 mM MgCl2, 1 mM EGTA. The final 10 μL Kinase Reaction consists of 0.12-0.5 ng JAK2 and 2 M Tyr 06 in 50 mM HEPES pH 7.5, 0.01% BRIJ-35, 10 mM MgCl2, 1 mM EGTA. After the one hour Kinase Reaction incubation, 5 μL of a 1:128 dilution of Development Reagent A is added.
# as §5
# JAK1 = JAK1 (Homo sapiens (Human), UniProt P23458); test: JAK1 enzyme activity assay (Thermo Fisher SelectScreen, Z-lyte); assay type: biochemical; details: read-out: JAK1 Inhibition IC50
# Sequence of JAK1 (P23458 whole entry): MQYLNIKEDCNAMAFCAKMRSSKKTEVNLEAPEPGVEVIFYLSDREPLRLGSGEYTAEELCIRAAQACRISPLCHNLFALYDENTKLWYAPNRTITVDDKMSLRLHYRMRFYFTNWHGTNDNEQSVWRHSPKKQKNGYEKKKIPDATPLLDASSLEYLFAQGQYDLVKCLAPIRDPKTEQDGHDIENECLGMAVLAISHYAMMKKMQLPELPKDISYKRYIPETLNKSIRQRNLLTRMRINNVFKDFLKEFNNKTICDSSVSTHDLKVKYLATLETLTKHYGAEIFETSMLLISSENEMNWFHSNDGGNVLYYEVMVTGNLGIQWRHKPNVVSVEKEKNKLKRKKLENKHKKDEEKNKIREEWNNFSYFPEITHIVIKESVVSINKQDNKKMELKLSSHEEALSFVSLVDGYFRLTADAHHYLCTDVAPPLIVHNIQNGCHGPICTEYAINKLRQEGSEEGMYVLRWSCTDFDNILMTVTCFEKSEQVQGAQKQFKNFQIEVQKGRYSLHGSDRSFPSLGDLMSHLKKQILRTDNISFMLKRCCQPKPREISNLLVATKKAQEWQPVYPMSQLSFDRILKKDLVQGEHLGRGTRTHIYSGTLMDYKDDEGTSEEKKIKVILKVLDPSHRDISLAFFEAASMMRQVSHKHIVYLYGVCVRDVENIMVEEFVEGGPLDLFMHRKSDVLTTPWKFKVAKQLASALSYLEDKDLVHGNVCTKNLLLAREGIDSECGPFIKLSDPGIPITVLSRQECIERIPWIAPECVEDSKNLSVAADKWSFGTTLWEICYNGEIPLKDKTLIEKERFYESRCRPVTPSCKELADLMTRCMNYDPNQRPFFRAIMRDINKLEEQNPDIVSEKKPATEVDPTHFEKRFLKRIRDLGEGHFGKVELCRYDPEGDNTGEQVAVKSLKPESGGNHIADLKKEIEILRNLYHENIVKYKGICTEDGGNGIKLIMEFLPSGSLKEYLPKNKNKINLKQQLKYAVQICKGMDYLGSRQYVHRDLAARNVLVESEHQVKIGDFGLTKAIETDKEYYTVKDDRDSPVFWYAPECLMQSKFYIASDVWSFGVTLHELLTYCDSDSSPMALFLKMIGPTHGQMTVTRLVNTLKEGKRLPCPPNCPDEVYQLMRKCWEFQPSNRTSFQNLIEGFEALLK
# Experimental: as §3, §4
# JAK: The 2×JAK-enzyme/Tyr 06 mixture is prepared in 50 mM HEPES pH 6.5, 0.01% BRIJ-35, 10 mM MgCl2, 1 mM EGTA, 0.02% NaN3. The final 10 μL of the Kinase Reaction consists of 21.2-91.5 ng JAK and 2 M Tyr 06 in 50 mM HEPES pH 7.0, 0.01% BRIJ-35, 10 mM MgCl2, 1 mM EGTA, 0.01% NaN3. After the one hour Kinase Reaction incubation, 5 μL of a 1:128 dilution of Development Reagent is added.
# as §5
# [3] = system: IL-2 stimulated STAT5 phosphorylation on Tyr694 (JAK1/3); test: JAK1/3 cellular target modulation: IL-2 stimulated phospho-STAT5 in PBMC; assay type: cell-based; details: human PBMC, IL-2 25 ng/ml; read-out: IL2-STAT5 IC50
# Excerpt: as §1, §2
smiles,measurement,setting,value
"N#CCC(=O)N1CCC[C@@H](Nc2c(-c3nccs3)cnc3[nH]ccc23)C1 [Example 4, (R)-3-oxo-3-(3-((5-(thiazol-2-yl)-1H-pyrrolo[2,3-b]pyridin-4-yl)amino)piperidin-1-yl)propanenitrile]",IC50,[1],≤ 100 nM
same,IC50,[2],100 to 1000 nM
same,IC50,Tyk-2,≤ 10 nM
same,IC50,JAK3 (a.a. 781-1124),≤ 10 nM
same,IC50,JAK2,≤ 10 nM
same,IC50,JAK1,≤ 10 nM
same,IC50,[3],≤ 100 nM
"N#CCC(=O)N1CCC[C@@H](Nc2c(-c3ncco3)cnc3[nH]ccc23)C1 [Example 5, (R)-3-(3-((5-(oxazol-2-yl)-1H-pyrrolo[2,3-b]pyridin-4-yl)amino)piperidin-1-yl)-3-oxopropanenitrile]",IC50,[1],≤ 100 nM
same,IC50,[2],100 to 1000 nM
same,IC50,Tyk-2,≤ 10 nM
same,IC50,JAK3 (a.a. 781-1124),≤ 10 nM
same,IC50,JAK2,≤ 10 nM
same,IC50,JAK1,≤ 10 nM
same,IC50,[3],≤ 100 nM
"Cc1noc(-c2cnc3[nH]ccc3c2N[C@@H]2CCCN(C(=O)CC#N)C2)n1 [Example 6, (R)-3-(3-((5-(3-methyl-1,2,4-oxadiazol-5-yl)-1H-pyrrolo[2,3-b]pyridin-4-yl)amino)piperidin-1-yl)-3-oxopropanenitrile]",IC50,[1],100 to 1000 nM
same,IC50,[2],> 1000 nM
same,IC50,Tyk-2,10 to 100 nM
same,IC50,JAK3 (a.a. 781-1124),≤ 10 nM
same,IC50,JAK2,10 to 100 nM
same,IC50,JAK1,≤ 10 nM
same,IC50,[3],≤ 100 nM
"N#CCC(=O)N1CCC[C@@H](Nc2c(-c3nnco3)cnc3[nH]ccc23)C1 [Example 7, (R)-3-(3-((5-(1,3,4-oxadiazol-2-yl)-1H-pyrrolo[2,3-b]pyridin-4-yl)amino)piperidin-1-yl)-3-oxopropanenitrile]",IC50,[1],100 to 1000 nM
same,IC50,[2],> 1000 nM
same,IC50,Tyk-2,10 to 100 nM
same,IC50,JAK3 (a.a. 781-1124),10 to 100 nM
same,IC50,JAK2,10 to 100 nM
same,IC50,JAK1,10 to 100 nM
same,IC50,[3],100 to 1000 nM
"O[C@H]1CC[C@@H](Nc2c(-c3ncco3)cnc3[nH]ccc23)C1 [Example 13, (1S,3R)-3-((5-(oxazol-2-yl)-1H-pyrrolo[2,3-b]pyridin-4-yl)amino)cyclopentan-1-ol]",IC50,[1],> 1000 nM
same,IC50,[2],> 1000 nM
same,IC50,Tyk-2,100 to 1000 nM
same,IC50,JAK3 (a.a. 781-1124),10 to 100 nM
same,IC50,JAK2,10 to 100 nM
same,IC50,JAK1,10 to 100 nM
same,IC50,[3],100 to 1000 nM
"Cc1ccnc(-c2cnc3[nH]ccc3c2N[C@@H]2CCCN(C(=O)CC#N)C2)c1 [Example 15, (R)-3-(3-((5-(4-methylpyridin-2-yl)-1H-pyrrolo[2,3-b]pyridin-4-yl)amino)piperidin-1-yl)-3-oxopropanenitrile]",IC50,[1],100 to 1000 nM
same,IC50,[2],> 1000 nM
same,IC50,Tyk-2,10 to 100 nM
same,IC50,JAK3 (a.a. 781-1124),≤ 10 nM
same,IC50,JAK2,10 to 100 nM
same,IC50,JAK1,≤ 10 nM
same,IC50,[3],≤ 100 nM
"N#CCC(=O)N1CCC[C@@H](Nc2c(-c3ccn[nH]3)cnc3[nH]ccc23)C1 [Example 18, (R)-3-(3-((5-(1H-pyrazol-5-yl)-1H-pyrrolo[2,3-b]pyridin-4-yl)amino)piperidin-1-yl)-3-oxopropanenitrile]",IC50,[1],100 to 1000 nM
same,IC50,[2],> 1000 nM
same,IC50,Tyk-2,10 to 100 nM
same,IC50,JAK3 (a.a. 781-1124),≤ 10 nM
same,IC50,JAK2,10 to 100 nM
same,IC50,JAK1,≤ 10 nM
same,IC50,[3],≤ 100 nM
"Cc1nc(-c2cnc3[nH]ccc3c2N[C@@H]2CCCN(C(=O)CC#N)C2)no1 [Example 19, (R)-3-(3-((5-(5-methyl-1,2,4-oxadiazol-3-yl)-1H-pyrrolo[2,3-b]pyridin-4-yl)amino)piperidin-1-yl)-3-oxopropanenitrile]",IC50,[1],> 1000 nM
same,IC50,[2],> 1000 nM
same,IC50,Tyk-2,100 to 1000 nM
same,IC50,JAK3 (a.a. 781-1124),10 to 100 nM
same,IC50,JAK2,100 to 1000 nM
same,IC50,JAK1,10 to 100 nM
same,IC50,[3],100 to 1000 nM
"Cc1cccc(-c2cnc3[nH]ccc3c2N[C@@H]2CCCN(C(=O)CC#N)C2)n1 [Example 20, (R)-3-(3-((5-(6-methylpyridin-2-yl)-1H-pyrrolo[2,3-b]pyridin-4-yl)amino)piperidin-1-yl)-3-oxopropanenitrile]",IC50,[1],100 to 1000 nM
same,IC50,[2],> 1000 nM
same,IC50,Tyk-2,100 to 1000 nM
same,IC50,JAK3 (a.a. 781-1124),10 to 100 nM
same,IC50,JAK2,10 to 100 nM
same,IC50,JAK1,≤ 10 nM
same,IC50,[3],≤ 100 nM
"N#CCC(=O)N1CCC[C@@H](Nc2c(-c3ccccn3)cnc3[nH]ccc23)C1 [Example 21, (R)-3-oxo-3-(3-((5-(pyridin-2-yl)-1H-pyrrolo[2,3-b]pyridin-4-yl)amino)piperidin-1-yl)propanenitrile]",IC50,[1],100 to 1000 nM
same,IC50,[2],100 to 1000 nM
same,IC50,Tyk-2,10 to 100 nM
same,IC50,JAK3 (a.a. 781-1124),10 to 100 nM
same,IC50,JAK2,10 to 100 nM
same,IC50,JAK1,≤ 10 nM
same,IC50,[3],≤ 100 nM
"Cc1ccc(-c2cnc3[nH]ccc3c2N[C@@H]2CCCN(C(=O)CC#N)C2)nc1 [Example 22, (R)-3-(3-((5-(5-methylpyridin-2-yl)-1H-pyrrolo[2,3-b]pyridin-4-yl)amino)piperidin-1-yl)-3-oxopropanenitrile]",IC50,[1],100 to 1000 nM
same,IC50,[2],> 1000 nM
same,IC50,Tyk-2,10 to 100 nM
same,IC50,JAK3 (a.a. 781-1124),10 to 100 nM
same,IC50,JAK2,10 to 100 nM
same,IC50,JAK1,10 to 100 nM
same,IC50,[3],100 to 1000 nM
"N#CCC(=O)N1CCC[C@@H](Nc2c(-c3ncccn3)cnc3[nH]ccc23)C1 [Example 23, (R)-3-oxo-3-(3-((5-(pyrimidin-2-yl)-1H-pyrrolo[2,3-b]pyridin-4-yl)amino)piperidin-1-yl)propanenitrile]",IC50,[1],> 1000 nM
same,IC50,[2],> 1000 nM
same,IC50,Tyk-2,100 to 1000 nM
same,IC50,JAK3 (a.a. 781-1124),10 to 100 nM
same,IC50,JAK2,100 to 1000 nM
same,IC50,JAK1,10 to 100 nM
same,IC50,[3],100 to 1000 nM
